Measurements from publication PMC11995211, “Design, Synthesis, and Evaluation of a New Fluorescent Ligand for the M2 Muscarinic Acetylcholine Receptor” (ACS Medicinal Chemistry Letters, 2025).

Key:
GLuc–M2R = molecular target: T1, GLuc–M2R (Homo sapiens, UniProt P08172); assay: BRET-based ligand binding on HEK 293T cells expressing GLuc–M2R
T1 construct: expressed in transfected cells
T1 sequence (P08172 1-466): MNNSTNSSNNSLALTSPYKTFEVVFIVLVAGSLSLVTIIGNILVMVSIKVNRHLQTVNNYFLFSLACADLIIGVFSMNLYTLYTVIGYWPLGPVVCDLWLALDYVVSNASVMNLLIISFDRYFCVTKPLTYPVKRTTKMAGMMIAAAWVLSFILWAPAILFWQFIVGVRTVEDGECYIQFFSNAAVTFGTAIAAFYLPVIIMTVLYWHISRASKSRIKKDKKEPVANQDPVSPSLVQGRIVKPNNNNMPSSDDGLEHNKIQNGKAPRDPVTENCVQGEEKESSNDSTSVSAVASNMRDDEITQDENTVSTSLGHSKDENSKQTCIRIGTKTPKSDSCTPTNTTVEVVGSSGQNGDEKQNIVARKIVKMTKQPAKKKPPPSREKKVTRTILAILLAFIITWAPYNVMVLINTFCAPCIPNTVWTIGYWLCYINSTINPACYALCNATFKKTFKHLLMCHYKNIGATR

HA–M2R [1] = molecular target: T2, HA–M2R (Homo sapiens, UniProt P08172); assay: Two-photon microscopy labeling of live HEK 293T cells; format: cell-based; details: 300 nM
T2 sequence (P08172 1-466): T1 sequence (P08172 1-466)
Source text: We examined live M2R cells with two-photon microscopy as well (Figure ). A labeling pattern similar to that observed in the confocal microscopy studies was identified. Figure A illustrates 33 labeling in HA–M2R-transfected cells. […] Similarly to the confocal images, no dye labeling was detected inside the cells. Figure B presents a microscopic image of nontransfected cells, showing a minor degree of autofluorescence. […] For additional two-photon images, see Figures S7 and S8. […]
were examined using a two-photon laser scanning system (Femto2D-uncage, Femtonics Ltd., Budapest, Hungary). The imaging laser (Chameleon Ultra II, Coherent Ltd., Santa Clara, CA, USA) was set to 820 nm and to 2-3% intensity. The excitation was delivered to the slices and the fluorescent signal was collected using an XLUMPlanFI 20x lens (Olympus, Tokyo, Japan).
Before image acquisition, cells were washed twice, and the medium was replaced to modified Krebs–Ringer solution. After capturing the zero-point image, we added 300 nM 33. After two minutes we captured images in 33 and infrared transmission channels. After 3 minutes, unbound 33 was removed by washing the cells with modified Krebs–Ringer solution, and the image […]
(§1) (1 picture or pasted object on this page, not shown here)

M2R–Cerulean = molecular target: T3, M2R–Cerulean (Homo sapiens, UniProt P08172); assay: Confocal microscopy labeling of live HEK 293T cells; format: cell-based
T3 construct: expressed in transfected cells
T3 sequence (P08172 1-466): T1 sequence (P08172 1-466)

HA–M2R [2] = molecular target: T2, HA–M2R; assay: STED nanoscopy labeling of living HEK 293T cells; format: cell-based; details: 300 nM
Source text: As STED microscopy is used for the deeper investigation of cellular processes even at the subcellular level, we challenged the fluorescent probe 33 in STED nanoscopy (Figure ). For STED, we used the same transfected cells as in the case of two-photon microscopy. Using the STED function and the available largest magnification objective, we observed improvement of optical resolution.
Figure S7. […] Scale bar:
20 μm. Representative images of two independent experiments are shown.
Figure S8. […] Scale bar:
50 μm. Representative images of two independent experiments are shown.
Confocal and STED microscopy
Confocal and STED images were acquired using a Leica TCS SP8 STED 3× inverse […]
well IBIDI chamber slides. The samples were scanned with a Leica HC PL Fluotar 20x/0.55 objective and a PMT detector. A 488 nm laser was used for the excitation of the fluorescent dye OG488 for the confocal imaging, and the spectral detection parameters were 500-550 nm.
as §1
Simultaneous transmission light imaging was used to detect the cells. For STED imaging, we used the same excitation laser and a Leica HC PL APO 100×/1.40 oil immersion objective and a Leica HyD detector, which was completed with a 660 nm STED (1.5 W, continuous wave) laser for depletion (at 1.17–2.48 × 109 W mm−2 nominal intensity with an output laser power of 1.2 W/32 nm × 32 nm pixel size). […]

hM3R = molecular target: T4, hM3R (Homo sapiens, UniProt P20309); assay: Radioligand competition binding, [3H]-scopolamine (N-methyl), CHO cell membranes, hM3R; details: mean ± SD, n = 3; membranes from CHO cells transfected with hM3R; read-out: Receptor Ki M3
T4 construct: expressed in transfected cells; host or cells: CHO cell membranes

hM4R = molecular target: T5, hM4R (Homo sapiens, UniProt P08173); assay: Radioligand competition binding, [3H]-scopolamine (N-methyl), CHO cell membranes, hM4R; details: mean ± SD, n = 3; membranes from CHO cells transfected with hM4R; read-out: Receptor Ki M4
T5 construct: expressed in transfected cells; host or cells: CHO cell membranes
T5 sequence (P08173 1-479): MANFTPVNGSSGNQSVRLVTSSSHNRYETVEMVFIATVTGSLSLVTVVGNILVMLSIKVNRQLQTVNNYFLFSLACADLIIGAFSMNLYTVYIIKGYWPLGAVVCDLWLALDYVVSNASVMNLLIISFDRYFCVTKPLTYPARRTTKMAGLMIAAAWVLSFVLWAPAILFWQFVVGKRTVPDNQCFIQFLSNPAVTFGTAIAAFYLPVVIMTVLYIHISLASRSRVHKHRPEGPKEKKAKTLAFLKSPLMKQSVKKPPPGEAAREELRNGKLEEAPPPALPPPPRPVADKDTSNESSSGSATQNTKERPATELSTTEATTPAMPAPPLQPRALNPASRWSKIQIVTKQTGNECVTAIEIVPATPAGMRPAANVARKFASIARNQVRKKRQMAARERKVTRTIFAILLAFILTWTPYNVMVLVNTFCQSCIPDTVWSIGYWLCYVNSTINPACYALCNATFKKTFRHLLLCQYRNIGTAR

T4 sequence (P20309 whole entry): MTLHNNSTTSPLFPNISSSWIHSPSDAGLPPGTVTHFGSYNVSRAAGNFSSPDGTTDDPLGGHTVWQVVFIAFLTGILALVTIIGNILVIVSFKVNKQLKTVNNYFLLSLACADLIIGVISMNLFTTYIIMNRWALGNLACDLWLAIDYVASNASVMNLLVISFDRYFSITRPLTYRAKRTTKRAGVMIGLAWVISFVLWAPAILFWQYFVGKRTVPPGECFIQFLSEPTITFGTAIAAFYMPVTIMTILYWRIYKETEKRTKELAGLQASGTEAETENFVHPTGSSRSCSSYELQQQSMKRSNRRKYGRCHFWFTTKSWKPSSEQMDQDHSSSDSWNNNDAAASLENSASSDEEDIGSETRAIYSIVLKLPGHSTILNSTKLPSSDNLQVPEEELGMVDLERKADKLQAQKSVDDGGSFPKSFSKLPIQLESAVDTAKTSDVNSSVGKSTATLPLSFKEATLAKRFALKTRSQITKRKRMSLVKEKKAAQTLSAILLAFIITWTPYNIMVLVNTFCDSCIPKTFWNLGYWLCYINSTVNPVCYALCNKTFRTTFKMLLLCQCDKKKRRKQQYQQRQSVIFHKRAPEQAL

## O=C(CCOCCOCCNC(=O)c1ccc(-c2c3cc(F)c(=O)cc-3oc3cc(O)c(F)cc23)c(C(=O)O)c1)NCCOCCOCCNc1ccccc1C(=O)N1CCC(N2CCC(Cc3ccc(S(=O)(=O)c4cccc(Cl)c4)cc3)CC2)CC1 [Compound 33]
GLuc–M2R; 1-hour treatment, nonspecific with 100 μM atropine, read-out: dissociation constant (KD), equilibrium BRET-based ligand binding
  Kd: 119 nM
GLuc–M2R; BRET-based kinetic ligand binding, read-out: association rate constant
  kon: 8060 M⁻¹ s⁻¹
GLuc–M2R; read-out: dissociation rate constant
  koff: 0.000867 s⁻¹
HA–M2R [1]; excited at 820 nm, live HEK 293T
  labeling of HA–M2R-transfected cells: selectively only at the plasma membrane
HA–M2R [1]; nontransfected HEK 293T
  labeling of nontransfected cells: no receptor labeling was observed
M2R–Cerulean; 300 nM, 3 min, live transfected HEK 293T
  labeling of M2R–Cerulean-expressing cells: significant labeling
M2R–Cerulean; 300 nM, 3 min, nontransfected HEK 293T
  labeling of nontransfected cells: no labeling was observed
M2R–Cerulean; 100 μM atropine 5 min before 300 nM 33
  labeling after atropine pretreatment: no labeling
HA–M2R [2]; living HEK 293T
  signal location in HA–M2R-expressing cells: concentrated in the membranes of cells
HA–M2R [2]; non-transfected HEK 293T
  fluorescence in control (M2R-negative) cells: fluorescence is lacking
hM3R
  Ki: 55600 ± 3240 nM
hM4R
  Ki: 54.1 ± 10.4 nM
